# Experimental data reported in patent US9056108B2, “Method of treating atrial fibrillation” (Gilead Sciences, Inc., priority 2009, dated 2015).
# Legend:
# [1] = biological target: T1, hNav1.5 (Homo sapiens, UniProt Q14524); experiment: Tefluthrin-induced late sodium current in HEK293 cells expressing hNav1.5; type: cell-based; details: HEK293 cells expressing hNav1.5, tefluthrin 10 μM; read-out: Concentration causing a half-maximal inhibition of late Na+
# T1 construct: expressed in transfected cells; host or cells: HEK293
# Procedure: The effect of dronedarone on late INa has not been reported. Therefore we determined the effect of dronedarone on late INa induced by incubation of HEK293 cells expressing the human heart sodium channel gene Nav1.5 with the late INa enhancer tefluthrin. […] Thus, the combination of dronedarone and ranolazine may be anticipated to reduce late INa. A reduction of late INa in the heart has been associated with a reduction of atrial arrhythmias in patients and in animal models of atrial fibrillation.
# [2] = tested on: coronary-perfused canine left ventricular (LV) preparations; experiment: Electrophysiology in isolated coronary-perfused canine left ventricular preparations; details: current in vitro investigation
# Procedure: Experiments were performed using isolated coronary-perfused canine right atrial (RA) and left ventricular (LV) preparations (≈3×1.5×1 cm). Isolation and perfusion of the preparations were as previously described.^9, 15, 16 Briefly, preparations were dissected from hearts removed from anesthetized (sodium pentobarbital) adult mongrel dogs (20-30 kg). Unfolded RA with attached rim of the right ventricle was cannulated and perfused with cold cardioplegic solution (4-8° C.) through the ostium of the right coronary artery; the LV wedge was perfused through a diagonal branch of the left anterior descending coronary artery. Unperfused tissue was removed with a razor blade. […]
# Transmembrane action potential (AP) recordings were obtained using floating glass microelectrodes at a sampling rate of 40 kHz. A pseudo-electrocardiogram (ECG) was recorded using two electrodes consisting of Ag/AgCl half cells placed in the Tyrode's solution bathing the preparation, 1.0 to 1.5 cm from the two opposite sides of the atrial or ventricular coronary-perfused preparations. […] Diastolic threshold of excitation (DTE) was determined by increasing stimulus intensity in 0.01 mA steps. Effective refractory period (ERP) was measured by delivering premature stimuli at progressively shorter S1-S2 intervals after every 10 basic beats at a pacing cycle length (CL) of 500 ms (5 ms steps; 2 times DTE). […]
# [3] = in vivo; cited from earlier work
# T1 sequence (Q14524 whole entry): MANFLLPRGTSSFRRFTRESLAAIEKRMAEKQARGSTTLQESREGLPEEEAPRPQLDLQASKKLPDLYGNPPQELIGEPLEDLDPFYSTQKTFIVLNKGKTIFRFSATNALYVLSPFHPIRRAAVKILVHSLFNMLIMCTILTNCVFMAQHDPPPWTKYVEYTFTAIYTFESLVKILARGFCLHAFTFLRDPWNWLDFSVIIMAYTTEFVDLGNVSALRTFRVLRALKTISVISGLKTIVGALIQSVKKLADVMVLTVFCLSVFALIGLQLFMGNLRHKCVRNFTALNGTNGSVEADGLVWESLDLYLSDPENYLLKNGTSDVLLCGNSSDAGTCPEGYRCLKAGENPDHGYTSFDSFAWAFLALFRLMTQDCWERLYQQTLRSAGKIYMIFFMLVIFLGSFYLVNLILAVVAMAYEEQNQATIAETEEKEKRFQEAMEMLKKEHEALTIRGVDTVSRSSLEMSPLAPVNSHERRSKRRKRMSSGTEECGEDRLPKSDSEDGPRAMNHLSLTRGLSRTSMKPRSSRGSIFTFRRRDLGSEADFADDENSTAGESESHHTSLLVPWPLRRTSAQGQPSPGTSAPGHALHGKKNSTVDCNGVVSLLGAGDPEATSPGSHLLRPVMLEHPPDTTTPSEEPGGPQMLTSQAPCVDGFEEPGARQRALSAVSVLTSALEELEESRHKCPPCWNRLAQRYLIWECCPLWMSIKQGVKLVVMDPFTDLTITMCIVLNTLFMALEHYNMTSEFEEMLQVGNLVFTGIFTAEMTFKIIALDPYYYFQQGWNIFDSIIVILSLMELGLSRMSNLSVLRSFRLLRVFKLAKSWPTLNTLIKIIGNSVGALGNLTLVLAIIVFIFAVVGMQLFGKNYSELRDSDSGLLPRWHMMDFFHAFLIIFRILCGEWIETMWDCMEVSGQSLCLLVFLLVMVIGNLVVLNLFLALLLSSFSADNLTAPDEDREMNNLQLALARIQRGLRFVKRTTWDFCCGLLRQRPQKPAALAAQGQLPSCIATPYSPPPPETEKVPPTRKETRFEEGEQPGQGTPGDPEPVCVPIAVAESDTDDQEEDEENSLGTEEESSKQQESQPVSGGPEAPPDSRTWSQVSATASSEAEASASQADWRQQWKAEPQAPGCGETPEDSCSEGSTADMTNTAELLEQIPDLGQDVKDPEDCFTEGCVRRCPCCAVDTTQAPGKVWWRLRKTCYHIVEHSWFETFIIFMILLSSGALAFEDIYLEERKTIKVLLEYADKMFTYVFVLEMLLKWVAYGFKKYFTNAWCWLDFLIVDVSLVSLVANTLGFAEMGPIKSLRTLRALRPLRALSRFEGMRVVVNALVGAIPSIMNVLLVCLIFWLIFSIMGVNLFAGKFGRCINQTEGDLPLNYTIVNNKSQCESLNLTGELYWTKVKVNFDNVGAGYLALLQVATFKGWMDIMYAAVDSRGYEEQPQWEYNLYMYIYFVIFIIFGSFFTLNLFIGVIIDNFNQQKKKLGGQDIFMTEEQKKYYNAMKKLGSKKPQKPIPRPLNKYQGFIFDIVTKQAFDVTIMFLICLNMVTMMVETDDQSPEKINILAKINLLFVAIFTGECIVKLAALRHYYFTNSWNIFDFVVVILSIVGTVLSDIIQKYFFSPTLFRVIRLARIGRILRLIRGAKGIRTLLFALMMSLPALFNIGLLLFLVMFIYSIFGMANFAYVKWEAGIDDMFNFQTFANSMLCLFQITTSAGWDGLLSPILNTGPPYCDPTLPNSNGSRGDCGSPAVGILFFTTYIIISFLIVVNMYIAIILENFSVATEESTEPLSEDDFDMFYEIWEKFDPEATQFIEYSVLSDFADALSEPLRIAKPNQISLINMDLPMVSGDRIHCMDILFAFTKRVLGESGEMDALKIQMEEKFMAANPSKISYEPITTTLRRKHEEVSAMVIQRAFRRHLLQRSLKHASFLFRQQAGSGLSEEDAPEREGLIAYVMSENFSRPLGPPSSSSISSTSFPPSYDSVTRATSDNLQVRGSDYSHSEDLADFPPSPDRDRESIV
structure (smiles),measurement,setting,value
"CCCCc1oc2ccc(NS(C)(=O)=O)cc2c1C(=O)c1ccc(OCCCN(CCCC)CCCC)cc1 [Dronedarone, N-(2-Butyl-3-(p-(3-(dibutylamino)propoxy)benzoyl)-5-benzofuranyl)methanesulfonamide]",IC50,[1],4 µM
same,Prolongation of ventricular ERP,[2],4%
same,Half-life of elimination,[3],about 24 hours
